According to publication PMC9781916, “Antipsychotic- and Anxiolytic-like Properties of a Multimodal Compound JJGW08 in Rodents” (International Journal of Molecular Sciences, 2022):

Assays:
5-HT7 receptors = system: 5-HT7 receptors; design: method as in doi:10.1016/j.molstruc.2022.134585; conditions: cited from earlier work
rats = test: Prepulse inhibition test after MK-801 in rats; assay type: in vivo; conditions: 3.0–30 mg/kg ip, MK-801 0.6 mg/kg ip
Description: Figure 5 The influence of JJGW08 on startle response inhibition (Panel (A)) and changes in startle response (Panel (B)) in prepulse inhibition test after MK-801 administration in rats. The test was conducted in the soundproof apparatus, and the startle response amplitude was recorded. The experimental session (after a 5-min habituation period) had strictly defined parameters (prepuls-and-pulse trials: 84/120–prepuls 84 dB (20 ms), pulse 120 dB (40 ms); 90/120–prepuls 90 dB (20 ms), pulse 120 dB (40 ms), sham stimulus (70 dB, 40 ms)), and the startle intensity for each stimulus used in the session was measured. JJGW08 was administered ip 30 min before the test, while MK-801 (0.6 mg/kg) was administered ip 15 min before the start of the experiment. The control group received 0.9% NaCl solution (ip) and MK-801 (0.6 mg/kg, ip). Values are expressed as mean ± SD, n = 7–8 rats per group. […]
The study was conducted as described in detail by Acewicz and colleagues. […] Startle responses, reflecting the motion of animals in the cylinder following the acoustic stimulus, were detected by a piezoelectric transducer mounted below the frame. […] Sound levels in the chambers were measured and calibrated with a sound meter. […] Startle responses were measured for 100 ms after the onset of the last stimulus within each trial. […]

mice = test: Four-plate test in mice; assay type: in vivo
Description: Figure 2 The effect of JJGW08 on the number of punished crossings in the four-plate test. Mice were placed in the apparatus, and after a 15 s adaptation period, each mouse crossing from one plate to another was punished with an electric shock. JJGW08 was administered intraperitoneally (ip) 30 min before the test. The control group received 0.9% NaCl solution (ip). Values are expressed as means ± SD, n = 8–10 mice per group. Statistical analysis: one-way ANOVA (Newman–Keuls post hoc), ** p < 0.01.
The four-plate test was performed on mice according to the previously described method. Mice were placed individually in the four-plate apparatus (Panlab, Barcelona, Spain). After a 15 s habituation period, each mouse that crossed from one plate to another (two limbs on one plate, two on another) was punished by an electric shock (0.8 mA, 0.5 s). The number of punished crossings was calculated during the 60 s of the test.

[1] = target: T1, human serotonin 5-HT1A receptor (Homo sapiens, UniProt P08908); test: Functional assay (aequorin, calcium mobilization) in CHO-K1 cells, 5-HT1A receptor; assay type: cell-based
T1 construct: host or cells: CHO-K1
T1 sequence (P08908 1-422): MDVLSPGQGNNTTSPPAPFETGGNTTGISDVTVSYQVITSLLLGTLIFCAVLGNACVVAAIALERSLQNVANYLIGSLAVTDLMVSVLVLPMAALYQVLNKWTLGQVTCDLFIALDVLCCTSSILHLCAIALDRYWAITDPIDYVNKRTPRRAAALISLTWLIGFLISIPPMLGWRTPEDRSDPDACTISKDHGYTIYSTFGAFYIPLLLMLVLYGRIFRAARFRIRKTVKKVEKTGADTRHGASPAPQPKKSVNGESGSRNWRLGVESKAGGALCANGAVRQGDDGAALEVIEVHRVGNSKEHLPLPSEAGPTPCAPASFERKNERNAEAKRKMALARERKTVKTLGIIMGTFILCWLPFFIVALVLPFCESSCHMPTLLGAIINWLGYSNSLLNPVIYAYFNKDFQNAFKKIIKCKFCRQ
Description: (§1) Tested and reference compounds were dissolved in dimethyl sulfoxide (DMSO) at a concentration of 10 mM. Serial dilutions were prepared in a 96-well microplate in assay buffer, and 8 to 10 concentrations were tested. […] The assay was executed according to the previously described protocol [45]. After thawing, cells were transferred to assay buffer (DMEM/HAM’s F12 with 0.1% protease-free BSA) and centrifuged. The cell pellet was resuspended in assay buffer, and coelenterazine h was added at final concentrations of 5 µM. The cell suspension was incubated at 16 °C (or 21 °C), protected from light with constant agitation for 16 h (or 4 h), and then diluted with assay buffer to the concentration of 100,000 cells/mL (or 250,000 cells/mL). After 1 h of incubation, 50 µL of the cell’s suspension was dispensed using automatic injectors built into the radiometric and luminescence plate counter MicroBeta2 LumiJET (PerkinElmer, Waltham, NA, USA) into white opaque 96-well microplates preloaded with test compounds. Immediate light emission generated following calcium mobilization was recorded for 30 s. In antagonist mode, after 25–30 min of incubation, the reference agonist was added to the above assay mix, and light emission was re-recorded. […] IC50 and EC50 values were calculated.

[2] = target: human serotonin 5-HT7 receptor (Homo sapiens, UniProt P34969); test: Functional assay (cAMP, TR-FRET) in CHO-K1 cells, 5-HT7 receptor
Sequence of human serotonin 5-HT7 receptor (P34969 whole entry): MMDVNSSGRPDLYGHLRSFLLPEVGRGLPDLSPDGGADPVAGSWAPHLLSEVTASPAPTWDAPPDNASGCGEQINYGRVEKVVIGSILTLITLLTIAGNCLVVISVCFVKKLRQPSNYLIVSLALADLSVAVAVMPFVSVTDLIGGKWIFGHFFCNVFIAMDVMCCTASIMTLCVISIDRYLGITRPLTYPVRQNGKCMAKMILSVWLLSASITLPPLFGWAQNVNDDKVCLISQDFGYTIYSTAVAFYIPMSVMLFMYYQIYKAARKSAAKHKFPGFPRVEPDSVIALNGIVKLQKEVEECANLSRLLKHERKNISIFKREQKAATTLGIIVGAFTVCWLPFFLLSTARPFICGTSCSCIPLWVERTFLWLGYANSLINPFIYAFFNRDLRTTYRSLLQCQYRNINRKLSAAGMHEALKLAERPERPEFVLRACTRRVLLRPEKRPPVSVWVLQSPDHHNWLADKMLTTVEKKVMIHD
Description: Test and reference compounds were dissolved in DMSO at a concentration of 1 mM. Serial dilutions were prepared in a 96-well microplate in assay buffer, and 8 to 10 concentrations were tested. […] A functional assay based on cells expressing the human 5-HT7 receptor was performed according to the previously described protocol [16, 45]. CHO-K1 cells were transfected with a beta-lactamase (bla) reporter gene under the control of the cyclic AMP response element (CRE) (Life Technologies, Carlsbad, CA, USA).

human D2 receptor = target: T2, human D2 receptor (Homo sapiens, UniProt P14416); test: Functional assay (aequorin, calcium mobilization) in CHO-K1 cells, D2 receptor; assay type: cell-based
T2 construct: host or cells: CHO-K1
T2 sequence (P14416 whole entry): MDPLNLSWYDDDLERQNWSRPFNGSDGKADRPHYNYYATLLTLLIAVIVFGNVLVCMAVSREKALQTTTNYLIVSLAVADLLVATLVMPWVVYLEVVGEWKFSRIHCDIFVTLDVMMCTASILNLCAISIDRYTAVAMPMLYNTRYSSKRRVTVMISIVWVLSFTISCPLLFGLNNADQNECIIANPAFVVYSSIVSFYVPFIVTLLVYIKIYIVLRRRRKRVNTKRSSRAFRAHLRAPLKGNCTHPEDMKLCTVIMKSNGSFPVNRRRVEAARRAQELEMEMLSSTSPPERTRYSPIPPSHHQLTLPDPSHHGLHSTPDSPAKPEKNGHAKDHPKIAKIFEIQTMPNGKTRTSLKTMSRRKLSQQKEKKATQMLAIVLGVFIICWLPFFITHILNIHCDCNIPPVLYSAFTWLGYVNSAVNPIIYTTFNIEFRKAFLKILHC
Description: as §1

D2 receptors = system: D2 receptors; design: method as in doi:10.1016/j.molstruc.2022.134585; conditions: cited from earlier work
[3] = antagonist mode, 100 nM serotonin as reference agonist
[4] = 5-HT7, antagonist mode, 10 nM serotonin as reference agonist
[5] = D2, antagonist mode, 30 nM apomorphine as reference agonist

## COc1ccccc1N1CCN(CCCCCOc2ccccc2C(N)=O)CC1.Cl [JJGW08, 2-{5-[4-(2-metoksyfenylo)piperazin-1-ylo]pentoxy}benzamide hydrochloride]
5-HT7 receptors
  affinity (in words): moderate affinity
rats
  reversal of deficits in sensorimotor gating induced by MK-801 (in words): did not reverse the deficits
rats; prepulse 84 or 90 dB
  startle reaction inhibition (%PPI): −0.2 to 24.4%
mice; 0.3 mg/kg ip
  increase in the number of punished crossings: 54%
mice; 0.625 mg/kg ip
  increase in the number of punished crossings: 49%
[1]; agonist mode
  Agonist Mode Emax%: 9%
[1]; [3]
  Antagonist Mode Emax%: 1%
  Antagonist Mode pIC50 ± Range: 8.3 ± 0.1
[2]; 5-HT7, agonist mode
  Agonist Mode Emax%: 1%
[2]; [4]
  Antagonist Mode Emax%: 4%
  Antagonist Mode pIC50 ± Range: 6.4 ± 0.1
[2]; 5-HT7 functional assay
  antagonistic properties (in words): very weak antagonistic properties
[2]; read-out: Antagonist Mode Kb, 5-HT7, antagonist mode, Cheng equation
  Kb: 0.19 µM
Human D2 receptor; D2, agonist mode
  Agonist Mode Emax%: 13%
Human D2 receptor; [5]
  Antagonist Mode Emax%: 0%
  Antagonist Mode pIC50 ± Range: 7.9 ± 0.0
Human D2 receptor; D2, antagonist mode, Cheng equation
  Kb: 0.002 µM
Human D2 receptor; D2 functional assay
  antagonistic properties (in words): strong antagonistic properties
D2 receptors
  affinity (in words): high affinity
